The values that follow come from PubChem BioAssay (NCI).

Structures are written as SMILES. Values joined by “and” are separate entries in the source; they are usually repeats but may differ in a detail not shown here. Equal entries are not always repeated.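 All cell lines were grown in 96-well plates and treated with compound for 48 hours. At the GI50, growth is halved. TGI is the concentration that stops growth completely.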 Where only a bound is given, the exact number is not on record here.

Common to all, as to assay: NCI-60 cell line screen, 48 h
Experiment [1] relates to SR leukemia.
The subject of experiment [2] is SF-295 CNS.
The test system of experiment [3] is COLO 205 colon.
In experiment [4] the test system is EKVX NSCLC.
The subject of experiment [5] is KM12 colon.
Experiment [6] has as its system HCT-15 colon.
Experiment [7] has as its system HOP-62 NSCLC.
Experiment [8] relates to SF-268 CNS.
The subject of experiment [9] is OVCAR-4 ovarian.
In experiment [10] the test system is A549 NSCLC.

Turning to `CC1=C(C(=O)Nc2ccc(Cl)c(Cl)c2)C(c2cccc(O)c2)NC(=S)N1` (stereo not drawn), the GI50 in experiment [1] is 14.2 µM; in experiment [2], 8.63 µM; in experiment [3] it was 7.09 µM; in experiment [4] it was 9.38 µM; in experiment [5], 7.77 µM; in experiment [6], 21.8 µM. In addition, the figures for the GI50 in [7], in [8] and in [9] were 17.3 µM, 8.35 µM and 12.4 µM, respectively. Further, the TGI in experiment [1] was 49 µM; in [2] it was 17.6 µM; in experiment [3] it was 14.6 µM; in experiment [4], 21.4 µM; in experiment [5], 16.6 µM; in experiment [6], greater than 50 µM. Further, the results for the TGI in experiment [7], in experiment [8] and in experiment [9] were 31.2 µM, 17 µM and greater than 50 µM, respectively.
For `COC(=O)/C(Br)=C/c1c[nH]c2ccc(Br)cc12`, the GI50 in [1] is 26.9 µM; in [2] it was 12.4 µM; in experiment [3], 12.5 µM; in experiment [4], 12.3 µM; in [5], 12.6 µM; in experiment [6], 6.26 µM. Also, the values for the GI50 in experiment [7], in [8] and in [9] were 17.6 µM, 15.6 µM and 10.7 µM, respectively. Also, the TGI in [1] was greater than 100 µM; in experiment [2] it was 27.3 µM; in experiment [3], 25.1 µM; in experiment [4] it was 29.7 µM; in [5] it was 27 µM; in experiment [6], 21.4 µM. Further, the TGI in [7] was 51.9 µM; in experiment [8] it was 60.3 µM; in experiment [9], 56.8 µM.
Turning to `COc1ccc(OC)c2c3c(ncc12)-c1cc2c(cc1C3)OCO2`, the GI50 in [1] is 4.22 µM; in experiment [2], 27 µM; in [3], greater than 100 µM; in experiment [4], 93.4 µM; in experiment [5], greater than 100 µM; in [6], 3.87 µM. Further, the GI50 in experiment [10] and in experiment [9] was greater than 100 µM throughout. The TGI in experiment [1], in [2], in experiment [3], in experiment [4], in [5] and in experiment [6] was greater than 100 µM each time. For the same molecule, the TGI in experiment [10] was greater than 100 µM; in [7], 0.0603 µM; in experiment [9], greater than 100 µM.
Consider `O=C(/C=C/c1ccc2c(c1)OCO2)c1ccccc(=O)c1O`, for which the TGI is greater than 100 µM in [1]; 20.2 µM in experiment [3]; greater than 100 µM in experiment [4]; 26.1 µM in experiment [5]; greater than 100 µM in experiment [6]; greater than 100 µM in experiment [7]. Besides, the TGI in experiment [8] was 35.9 µM; in [9], greater than 100 µM.
As to `O=[N+]([O-])c1ccc(C2N3CCCCC3[C@@H]3c4[nH]c5ccccc5c4CCN23)cc1` (stereo partly drawn), the TGI is greater than 100 µM in [1]; greater than 100 µM in [2]; 38 µM in experiment [3]; greater than 100 µM in experiment [4]; 59.1 µM in experiment [6]; greater than 100 µM in experiment [10]. In addition, the TGI is 47.9 µM in [7], 43 µM in experiment [8] and greater than 100 µM in [9].
`Cn1c(C2CC(C)(C)c3c2c2ccccc2n3C)cc2ccccc21` (stereo not drawn): the TGI in [1], in experiment [2], in experiment [3], in experiment [4], in experiment [5] and in experiment [6] was greater than 304 µM in each case. Moreover, the TGI in experiment [10], in experiment [7] and in experiment [8] was greater than 304 µM throughout.
Turning to `C[C@H]1[C@H](C)CC[C@]2(C(=O)O)CC[C@]3(C)C(=CC[C@@H]4[C@@]5(C)CC[C@H](OC(=O)/C=C\c6ccc(O)cc6)C(C)(C)[C@@H]5CC[C@]43C)[C@H]12`, the GI50 was 2.69 µM in experiment [1]; 3.03 µM in experiment [2]; 3.85 µM in [3]; 3.11 µM in experiment [4]; 3.08 µM in experiment [6]; 2.02 µM in [10]. For the same molecule, the GI50 in [7] is 2.26 µM; in [8] it was 3.23 µM; in experiment [9], 10.6 µM. The TGI was 6.66 µM in [1]; 31.2 µM in [2]; 14.8 µM in experiment [3]; 13.7 µM in [4]; 12.7 µM in experiment [6]; greater than 100 µM in [10]. For the same molecule, the values for the TGI in experiment [7], in experiment [8] and in experiment [9] were 12.8 µM, 14.8 µM and 28.8 µM, respectively.
As to `COC(=O)C1CCc2nnc(-c3cccnc3)n21` (stereo not drawn), the TGI in experiment [1], in experiment [3], in experiment [4], in [5], in experiment [6] and in experiment [10] was greater than 100 µM in each case. The TGI in experiment [7], in experiment [8] and in experiment [9] was greater than 100 µM in each case.
With `COC(=O)C12OCC34C(CC5C(C)=CC(=O)C(O)C5(C)C3C(O)C1O)OC(=O)C(OC(=O)CC(C)C)C24` (stereo not drawn), in [1], the TGI came to 0.0506 µM. For the same molecule, the GI50 is 0.077 µM in [2]; 0.425 µM and 0.05 µM in experiment [3]; 0.0612 µM in experiment [4]; 0.0511 µM and 0.05 µM in [5]; 0.0565 µM and 0.05 µM in [6]; < 0.0399 µM and 0.05 µM in experiment [10]. Besides, the GI50 in [7] was 0.0439 µM and 0.05 µM; in [8], 0.0671 µM and 0.05 µM.
For the molecule `O=c1[nH]c(C2CCCCC2)nc2cc(Cl)ccc12`, the TGI in experiment [1], in experiment [2], in [3], in experiment [4], in [5] and in experiment [6] was greater than 100 µM in each case. For the same molecule, the TGI in [10], in [8] and in [9] was greater than 100 µM each time.
`Cn1c2ccccc2c(=S)c2cc(NC(=O)CCCCC(=O)Nc3ccc4c(c3)c(=S)c3ccccc3n4C)ccc21`: the TGI in [1], in experiment [2], in [3], in [4], in [5] and in [6] was greater than 100 µM throughout. The TGI in experiment [10], in experiment [7] and in experiment [8] was greater than 100 µM each time.
